Here are results for 7 compounds from US20150136167A1, “METHOD OF TREATING HAIR” (priority 2012, published 2015).

Data set [1] is described as follows: Solubility of actives at the 5% level. The format is physicochemical.
Data set [2] in a line: Hair straightening on dry hair switches (volume of switch image), Experiments 1 and 4. The protocol: Dark brown European wavy#6 switches of length 25 cm and weight 2 gms, were dosed with 2 ml each of 5% citric acid solutions at various pH's. They were combed straight and left to dry for at least 20 minutes. They were subsequently rinsed for 30 seconds under the tap. They were then combed straight and left to dry overnight. When dry the switches were combed straight and pictures taken. […] (Here volume refers to the projection of the switch image on to the screen and is given in mm^2).

Data set [3] can be described thus: Hair straightening with application to wet hair, Experiment 3.
Where [4] appears, read: 5% solution at pH 2, 2 ml dosed on dry switch, left at least 20 min, rinsed, combed, dried overnight.
Where [5] appears, read: 5% solution at pH 2, dosed on dry switch.
[6] abbreviates: 5% solution at pH 3, dosed on dry switch.
[7] abbreviates: 5% solution at pH 4, dosed on dry switch.
[8] abbreviates: 5% solution at pH 5, dosed on dry switch.
The mark [9] stands for this setting: 5% solution at pH 6, dosed on dry switch.

`O=C(O)/C=C/C(=O)O` [Fumaric acid]: the “solubility at the 5% level” value in data set [1] is reported as “not soluble at the 5% level”.
For the compound `O=C(O)CC(O)C(=O)O` (stereo not drawn) [Malic acid], in data set [2] (setting [4]), the “Volume in mm^2” value amounted to 12426 mm^2. For the same compound, the “% benefit over water” value in data set [2] (setting [5]) is reported as 13.0%.
`O=C(O)CC(=O)O` [Malonic acid]: the “Volume in mm^2” value in data set [2] (setting [4]) is recorded as 11220 mm^2; in data set [2] (setting [6]) it was 11950 mm^2. The “% benefit over water” value amounted to 21.4% in data set [2] (setting [5]) and 16.3% in data set [2] (setting [6]).
Consider `O=C(O)C(O)c1ccccc1` (stereo not drawn) [Mandelic acid, reference compound], for which, in data set [2] (setting [4]), the “Volume in mm^2” value was determined as 13545 mm^2. For the same compound, the “% benefit over water” value in data set [2] (setting [5]) is reported as 5.1%.
For `O=C(O)C(=O)O` [Oxalic acid] the same measures were 13419 mm^2 and 6.0%.
For the compound `O=C(O)CC(O)(CC(=O)O)C(=O)O` [citric acid], the “straightening benefit compared with the results with dry hair” value in data set [3] (5% solution at pH 2 applied to wet hair) and in data set [3] (5% solution at pH 3 applied to wet hair) was “significantly reduced” each time. The “Volume in mm^2” value was found to be 9481 mm^2 in data set [2] (setting [4]); 9574 mm^2 in data set [2] (setting [6]); 11717 mm^2 in data set [2] (setting [7]); 10871 mm^2 in data set [2] (setting [8]); 12136 mm^2 in data set [2] (setting [9]). Besides, the “% benefit over water” value is 33.6% in data set [2] (setting [5]); 32.9% in data set [2] (setting [6]); 17.9% in data set [2] (setting [7]); 23.9% in data set [2] (setting [8]); 15.0% in data set [2] (setting [9]).
As to `O=C(O)/C=C(\CC(=O)O)C(=O)O` [trans Aconitic acid], the figures for the “Volume in mm^2” value in data set [2] (setting [4]) and in data set [2] (setting [6]) were 8456 mm^2 and 11812 mm^2, respectively. For the same compound, the “% benefit over water” value in data set [2] (setting [5]) amounted to 40.8%; in data set [2] (setting [6]) it was 17.3%.
